Test system: Plasmodium berghei
Experiment: Luciferase/luciferin-expressing antifolate-resistant parasites were used to infect a culture of HepG2 cells that were pre-incubated with compounds. Infected hepatocytes emit light due to the luciferase reaction. Assay results are presented as the percent inhibition of light emission compared to control. […]
Assay type: functional
Details: sporozoite; for IC90: read-out: LUCIFERASE INFECTION ASSAY - IC90
[1] = read-out: LUCIFERASE INFECTION ASSAY - IC50

| SMILES | IC90 | IC50 [1] | further results |
| --- | --- | --- | --- |
| CC(=O)Nc1cccc(-c2ccnc3c2CC(C)(C(=O)NCc2cccc(Cl)c2)O3)c1 (stereo not drawn) | > 7.57 µM |  | IC50 (FFLUC_HILL_SLOPE 12.6, FFLUC_R_SQUARED 0.486, HEPG2TOX_HILL_SLOPE 12, HEPG2TOX_R_SQUARED 0.561, PBLUC_HILL_SLOPE 2.25, PBLUC_R_SQUARED 0.29, read-out: LUCIFERASE INFECTION ASSAY - IC50): 4.2 µM |
| Cc1cc([N+](=O)[O-])cc(S(=O)(=O)N(C)Cc2ccc(C(=O)NC3CC3)cc2)c1C | 6.84 µM |  | IC50 (FFLUC_HILL_SLOPE 30.1, FFLUC_R_SQUARED 0.449, PBLUC_HILL_SLOPE 4.67, PBLUC_R_SQUARED 0.152, read-out: LUCIFERASE INFECTION ASSAY - IC50): 4.27 µM |
| Cc1c(-c2ccccc2)sc2ncnc(NCC(=O)N3CCCC3)c12 | > 10 µM |  | IC50 (PBLUC_HILL_SLOPE 2.95, PBLUC_R_SQUARED 0.129, read-out: LUCIFERASE INFECTION ASSAY - IC50): 5.82 µM |
| COc1ccc(O)c(C(=O)NNC(=O)C23CC4CC(CC(C4)C2)C3)c1 | > 10 µM |  | IC50 (PBLUC_HILL_SLOPE 14.2, PBLUC_R_SQUARED 0.249, read-out: LUCIFERASE INFECTION ASSAY - IC50): 8.74 µM |
| COc1cccc(Nc2nc(C(N)Cc3ccc(C(F)(F)F)cc3)cs2)n1 (stereo not drawn) | 3.58 µM |  | IC50 (PBLUC_HILL_SLOPE 179, PBLUC_R_SQUARED 0.233, read-out: LUCIFERASE INFECTION ASSAY - IC50): 3.53 µM |
| COc1cccc(CN(C)c2ncnc3sc(C)c(C)c23)c1OC | 3.84 µM |  | IC50 (HEPG2TOX_HILL_SLOPE 2.36, HEPG2TOX_R_SQUARED 0.798, PBLUC_HILL_SLOPE 15.6, PBLUC_R_SQUARED 0.417, read-out: LUCIFERASE INFECTION ASSAY - IC50): 3.34 µM |
| CCOC(=O)NNC(=S)Nc1ccccc1OC | > 12.3 µM | > 12.3 µM |  |
| CC(=O)Nc1ccc(OCC(=O)NC(c2ccc(C)cc2)c2cccs2)cc1 (stereo not drawn) | > 10 µM |  | IC50 (PBLUC_HILL_SLOPE 2.22, PBLUC_R_SQUARED 0.0478, read-out: LUCIFERASE INFECTION ASSAY - IC50): > 10 µM |
| Cc1ccc(C)c(S(=O)(=O)N(Cc2nnc(-c3ccc(Cl)cc3)o2)c2cccc(C(F)(F)F)c2)c1 | > 10 µM | > 10 µM |  |
| Cn1cc(-c2cn3c(-c4ccc5c(ccn5C)c4)cnc3cn2)cn1 | 1.47 µM |  | IC50 (HEPG2TOX_HILL_SLOPE 1.22, HEPG2TOX_R_SQUARED 0.939, PBLUC_HILL_SLOPE 1.34, PBLUC_R_SQUARED 0.885, read-out: LUCIFERASE INFECTION ASSAY - IC50): 0.287 µM |
| O=C(Nc1ccc(Oc2ccc(OC(F)(F)F)cc2)cc1)Nc1ccc(OC(F)(F)F)cc1 | > 6.99 µM | > 6.99 µM |  |
| CCC1CCc2sc(C(=O)NN)cc2C1 (stereo not drawn) | > 10 µM | > 10 µM |  |
| Cc1ccsc1C(O)c1nnc(N2CCCCC2)s1 (stereo not drawn) | 6.49 µM |  | IC50 (PBLUC_HILL_SLOPE 1.05, PBLUC_R_SQUARED 0.691, read-out: LUCIFERASE INFECTION ASSAY - IC50): 0.794 µM |
| N#Cc1ccc(CN2CCN(CC(=O)Nc3nc(-c4c[nH]c5ccccc45)cs3)CC2)cc1 | 3.45 µM |  | IC50 (HEPG2TOX_HILL_SLOPE 1.59, HEPG2TOX_R_SQUARED 0.927, PBLUC_HILL_SLOPE 64.1, PBLUC_R_SQUARED 0.488, read-out: LUCIFERASE INFECTION ASSAY - IC50): 3.33 µM |
| CN(c1ccccc1)S(=O)(=O)c1cccc(C(=O)Nc2ccc(-c3cn4c(n3)CCC4)cc2)c1 | > 10 µM | > 10 µM |  |
| O=C(N/N=C/c1cc(Cl)cc(Cl)c1O)N/N=C/c1cc(Cl)cc(Cl)c1O | > 7.57 µM | > 7.57 µM |  |
| C/C(=N\NC(=S)NC(C)(C)C)c1cc(F)cc(Cl)c1O | 4.66 µM |  | IC50 (FFLUC_HILL_SLOPE 2.86, FFLUC_R_SQUARED 0.466, HEPG2TOX_HILL_SLOPE 2.1, HEPG2TOX_R_SQUARED 0.731, PBLUC_HILL_SLOPE 9.8, PBLUC_R_SQUARED 0.522, read-out: LUCIFERASE INFECTION ASSAY - IC50): 3.72 µM |
| Cc1nc(N2CCc3ccccc32)c2c3c(sc2n1)CCC3 | 4.64 µM |  | IC50 (HEPG2TOX_HILL_SLOPE 9.23, HEPG2TOX_R_SQUARED 0.902, PBLUC_HILL_SLOPE 9.42, PBLUC_R_SQUARED 0.51, read-out: LUCIFERASE INFECTION ASSAY - IC50): 3.68 µM |
| CCCN(CC(=O)N1N=C(c2ccc(C)cc2)CC1c1ccco1)Cc1nnc(-c2ccco2)o1 (stereo not drawn) | > 10 µM | > 10 µM |  |
| O=C(/C(=N/Nc1ccc([N+](=O)[O-])cc1)C(=O)C(F)(F)F)c1cccs1 | 1 µM |  | IC50 (HEPG2TOX_HILL_SLOPE 2.64, HEPG2TOX_R_SQUARED 0.853, PBLUC_HILL_SLOPE 14.9, PBLUC_R_SQUARED 0.662, read-out: LUCIFERASE INFECTION ASSAY - IC50): 0.866 µM |
| Cc1cc(-c2ccccc2)[s+]c(-c2ccccc2)c1 | > 10 µM |  | IC50 (FFLUC_HILL_SLOPE 1.28, FFLUC_R_SQUARED 0.852, PBLUC_HILL_SLOPE 0.191, PBLUC_R_SQUARED 0.106, read-out: LUCIFERASE INFECTION ASSAY - IC50): > 10 µM |
| CCN(c1ccccc1)S(=O)(=O)c1ccc(Cl)c(NC(=O)C2(c3ccc(Cl)cc3)CCCC2)c1 | > 10 µM | > 10 µM |  |

| SMILES | IC90 | IC50 [1] | further results |
| --- | --- | --- | --- |
| Cc1sc2ncnc(SCC(=O)NC3CCN(Cc4ccccc4)C3)c2c1C (stereo not drawn) | > 10 µM | > 10 µM |  |
| CCCN1CCc2nc(NCc3ccc(Cl)c(Cl)c3)ncc2C1 | > 9.39 µM | 5.58 µM |  |
| CNc1nc2cnc(Nc3cccc(OC(F)(F)F)c3)cc2n1-c1cc(OC)c(OC)c(OC)c1 | > 10 µM |  | IC50 (PBLUC_HILL_SLOPE 2.6, PBLUC_R_SQUARED 0.253, read-out: LUCIFERASE INFECTION ASSAY - IC50): 6.55 µM |
| CSc1nccc(-c2sc3scc(C)c3c2C)n1 | > 11.3 µM | > 11.3 µM |  |
| O=[N+]([O-])c1cc(/C=N/O)ccc1Sc1ccccc1 | > 12 µM |  | IC50 (PBLUC_HILL_SLOPE 15.1, PBLUC_R_SQUARED 0.212, read-out: LUCIFERASE INFECTION ASSAY - IC50): > 12 µM |
| CSc1nccc(-c2ccc(S(=O)(=O)N3CCCCC3)s2)n1 | > 9.28 µM | > 9.28 µM |  |
| CC1CC1c1ccc(/C=C2\C(=O)Nc3cc(Cl)ccc32)o1 (stereo not drawn) | > 10 µM |  | IC50 (HEPG2TOX_HILL_SLOPE 10.3, HEPG2TOX_R_SQUARED 0.792, PBLUC_HILL_SLOPE 17.7, PBLUC_R_SQUARED 0.192, read-out: LUCIFERASE INFECTION ASSAY - IC50): 9.66 µM |
| CCC(C)NC(=O)c1c(NC(=O)c2ccc(Cl)cc2)nc2ccc(C)cn12 (stereo not drawn) | 3.02 µM | 2.58 µM |  |
| CCCn1c(C)cc(/C=C(\C#N)C(=O)Nc2c(C)cccc2C(C)C)c1C | 2.35 µM |  | IC50 (HEPG2TOX_HILL_SLOPE 4.53, HEPG2TOX_R_SQUARED 0.804, PBLUC_HILL_SLOPE 3.44, PBLUC_R_SQUARED 0.565, read-out: LUCIFERASE INFECTION ASSAY - IC50): 1.24 µM |
| CC(Nc1ncnc2scc(-c3ccccc3)c12)c1ccc(S(C)(=O)=O)cc1 (stereo not drawn) | 7.11 µM |  | IC50 (HEPG2TOX_HILL_SLOPE 1.17, HEPG2TOX_R_SQUARED 0.977, PBLUC_HILL_SLOPE 2.44, PBLUC_R_SQUARED 0.865, read-out: LUCIFERASE INFECTION ASSAY - IC50): 2.89 µM |
| COc1ccc(Cn2c(C)nc3oc4ccccc4c(=O)c3c2=O)cc1 | > 9.47 µM |  | IC50 (PBLUC_HILL_SLOPE 3.46, PBLUC_R_SQUARED 0.26, read-out: LUCIFERASE INFECTION ASSAY - IC50): 6.48 µM |
| CC(C)Cn1c(-c2ccccc2F)nc2c(c(=O)c3ccccc3n2C)c1=O | 7.64 µM |  | IC50 (PBLUC_HILL_SLOPE 4.02, PBLUC_R_SQUARED 0.715, read-out: LUCIFERASE INFECTION ASSAY - IC50): 4.42 µM |
| O=C(C1CC1)N1CCc2sccc2C1c1ccc(Cl)cc1 (stereo not drawn) | > 10.4 µM |  | IC50 (PBLUC_HILL_SLOPE 3.12, PBLUC_R_SQUARED 0.0785, read-out: LUCIFERASE INFECTION ASSAY - IC50): 9.69 µM |
| COc1ccc(S(=O)(=O)N2CCc3ccccc32)cc1C(=O)Oc1c(Cl)cc(Cl)c2ccc(C)nc12 | > 10 µM |  | IC50 (PBLUC_HILL_SLOPE 13.5, PBLUC_R_SQUARED 0.253, read-out: LUCIFERASE INFECTION ASSAY - IC50): > 10 µM |
| CC(C)n1ncc2c1N=C(N(C)C)N(c1ccccc1)C2c1ccc(Cl)cc1 (stereo not drawn) | > 10 µM |  | IC50 (HEPG2TOX_HILL_SLOPE 1.3, HEPG2TOX_R_SQUARED 0.392, read-out: LUCIFERASE INFECTION ASSAY - IC50): > 10 µM |
| CCOc1ccccc1N1CCN(CC(=O)Nc2cc(C)ccc2C)CC1 | > 10 µM | > 10 µM |  |
| O=C(OCC(=O)N1N=C(c2ccc(Cl)cc2)CC1c1ccco1)c1[nH]nc2ccccc12 (stereo not drawn) | > 10 µM | > 10 µM |  |
| Cc1cc(C)cc(C(=O)/C=c2\[nH]c(=O)/c(=C\c3cccs3)s2)c1 | > 10 µM | > 10 µM |  |
| COc1cc(/C=C/C(=O)c2cccc(Cl)c2)cc(Br)c1OCC(=O)N(C)C | 4.57 µM |  | IC50 (HEPG2TOX_HILL_SLOPE 4.93, 12.4, HEPG2TOX_R_SQUARED 0.976, 0.384, PBLUC_HILL_SLOPE 9.73, 46.2, PBLUC_R_SQUARED 0.151, 0.563, read-out: LUCIFERASE INFECTION ASSAY - IC50): 3.93 µM |
| COc1ncccc1C(=O)NNC(=O)c1nc(-c2ccccc2)n(-c2ccccc2)n1 | 3.43 µM |  | IC50 (HEPG2TOX_HILL_SLOPE 3.74, HEPG2TOX_R_SQUARED 0.853, PBLUC_HILL_SLOPE 83.7, PBLUC_R_SQUARED 0.266, read-out: LUCIFERASE INFECTION ASSAY - IC50): 3.34 µM |
| CCCCn1nc(C(=O)NNC(=O)Nc2ccc([N+](=O)[O-])cc2)c2ccccc2c1=O | > 10 µM |  | IC50 (HEPG2TOX_HILL_SLOPE 2.25, HEPG2TOX_R_SQUARED 0.286, read-out: LUCIFERASE INFECTION ASSAY - IC50): > 10 µM |
| Cc1ccc(S(=O)(=O)N(C)c2ccc(OCc3coc(-c4cccs4)n3)cc2)cc1 | > 10 µM | > 10 µM |  |
